Assay results published in BindingDB's records for doi:10.1016/j.carres.2010.10.023 (East China University of Science and Technology, 2011).

Experiments:
Assay in all cases: Inhibitor Assay
Conditions in all cases: 30 °C
[1] = biological target: T1, Tyrosine-protein phosphatase non-receptor type 1 (Homo sapiens, UniProt P18031)
T1 sequence (P18031 whole entry): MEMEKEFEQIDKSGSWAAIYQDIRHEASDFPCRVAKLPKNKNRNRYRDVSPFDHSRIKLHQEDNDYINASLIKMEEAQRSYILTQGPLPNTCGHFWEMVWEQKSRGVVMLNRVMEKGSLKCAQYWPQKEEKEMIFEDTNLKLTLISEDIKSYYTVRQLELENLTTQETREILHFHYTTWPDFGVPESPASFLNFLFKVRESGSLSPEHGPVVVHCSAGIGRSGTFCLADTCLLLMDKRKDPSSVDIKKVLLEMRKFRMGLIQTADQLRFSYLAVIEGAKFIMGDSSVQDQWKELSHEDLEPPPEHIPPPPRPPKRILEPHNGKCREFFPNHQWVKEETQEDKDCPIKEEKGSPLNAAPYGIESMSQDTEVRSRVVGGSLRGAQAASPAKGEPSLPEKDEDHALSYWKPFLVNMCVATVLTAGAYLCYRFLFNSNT
Description: The assay mixture ([…]) containing 50 mM MOPS (pH 6.5), 2 mM pNPP and PTP1B were monitored at 405 nm for 2 min at 30 C.

[2] = biological target: T2, Tyrosine-protein phosphatase non-receptor type 11 (Homo sapiens, UniProt Q06124)
T2 sequence (Q06124 whole entry): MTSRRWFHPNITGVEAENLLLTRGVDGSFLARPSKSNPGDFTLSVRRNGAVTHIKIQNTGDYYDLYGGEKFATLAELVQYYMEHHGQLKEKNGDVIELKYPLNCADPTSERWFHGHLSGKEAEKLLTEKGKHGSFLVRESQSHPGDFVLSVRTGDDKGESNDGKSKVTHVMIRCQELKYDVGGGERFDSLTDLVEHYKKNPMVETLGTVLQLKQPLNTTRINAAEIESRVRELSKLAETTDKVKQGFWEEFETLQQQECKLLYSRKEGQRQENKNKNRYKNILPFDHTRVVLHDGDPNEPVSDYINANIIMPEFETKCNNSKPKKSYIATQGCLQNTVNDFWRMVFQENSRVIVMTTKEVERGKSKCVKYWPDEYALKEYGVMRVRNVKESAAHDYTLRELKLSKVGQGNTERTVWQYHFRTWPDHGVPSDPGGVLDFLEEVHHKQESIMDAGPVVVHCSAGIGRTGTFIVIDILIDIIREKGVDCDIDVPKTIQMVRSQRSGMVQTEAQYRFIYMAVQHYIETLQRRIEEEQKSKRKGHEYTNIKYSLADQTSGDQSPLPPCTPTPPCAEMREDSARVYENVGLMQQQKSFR

[3] = biological target: T3, Tyrosine-protein phosphatase non-receptor type 2 (Homo sapiens, UniProt P17706)
T3 sequence (P17706 whole entry): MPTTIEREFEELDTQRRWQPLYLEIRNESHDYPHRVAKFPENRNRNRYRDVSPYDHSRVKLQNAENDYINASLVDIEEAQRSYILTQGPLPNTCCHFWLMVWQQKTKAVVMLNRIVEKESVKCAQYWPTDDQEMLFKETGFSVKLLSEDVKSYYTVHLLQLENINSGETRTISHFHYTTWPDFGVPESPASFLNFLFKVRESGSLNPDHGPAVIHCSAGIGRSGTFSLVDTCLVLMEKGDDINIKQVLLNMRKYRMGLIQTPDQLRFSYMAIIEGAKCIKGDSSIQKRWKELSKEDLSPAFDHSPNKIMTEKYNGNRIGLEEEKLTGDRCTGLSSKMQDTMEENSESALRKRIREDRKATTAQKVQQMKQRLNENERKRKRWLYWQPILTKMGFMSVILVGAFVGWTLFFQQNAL

[4] = biological target: Receptor-type tyrosine-protein phosphatase F (Homo sapiens, UniProt P10586)
[5] = biological target: Tyrosine-protein phosphatase non-receptor type 6 (Homo sapiens, UniProt P29350)
Chain of Tyrosine-protein phosphatase non-receptor type 6 (P29350 whole entry): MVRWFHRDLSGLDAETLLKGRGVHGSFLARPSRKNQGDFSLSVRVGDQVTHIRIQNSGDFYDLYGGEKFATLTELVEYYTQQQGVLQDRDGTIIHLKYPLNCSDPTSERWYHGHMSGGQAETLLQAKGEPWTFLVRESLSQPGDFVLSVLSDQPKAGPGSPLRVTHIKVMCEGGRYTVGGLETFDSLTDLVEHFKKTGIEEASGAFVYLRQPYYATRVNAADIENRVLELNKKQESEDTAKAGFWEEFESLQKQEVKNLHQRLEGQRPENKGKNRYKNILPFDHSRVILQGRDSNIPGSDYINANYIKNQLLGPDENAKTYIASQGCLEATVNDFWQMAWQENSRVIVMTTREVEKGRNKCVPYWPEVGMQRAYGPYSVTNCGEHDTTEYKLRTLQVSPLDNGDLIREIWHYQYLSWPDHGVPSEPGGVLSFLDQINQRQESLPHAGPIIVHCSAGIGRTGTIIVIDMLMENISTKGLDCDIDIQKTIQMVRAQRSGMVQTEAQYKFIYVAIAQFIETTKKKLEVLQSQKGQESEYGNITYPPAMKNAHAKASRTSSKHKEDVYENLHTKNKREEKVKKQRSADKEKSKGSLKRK

Chain of Receptor-type tyrosine-protein phosphatase F (P10586 whole entry): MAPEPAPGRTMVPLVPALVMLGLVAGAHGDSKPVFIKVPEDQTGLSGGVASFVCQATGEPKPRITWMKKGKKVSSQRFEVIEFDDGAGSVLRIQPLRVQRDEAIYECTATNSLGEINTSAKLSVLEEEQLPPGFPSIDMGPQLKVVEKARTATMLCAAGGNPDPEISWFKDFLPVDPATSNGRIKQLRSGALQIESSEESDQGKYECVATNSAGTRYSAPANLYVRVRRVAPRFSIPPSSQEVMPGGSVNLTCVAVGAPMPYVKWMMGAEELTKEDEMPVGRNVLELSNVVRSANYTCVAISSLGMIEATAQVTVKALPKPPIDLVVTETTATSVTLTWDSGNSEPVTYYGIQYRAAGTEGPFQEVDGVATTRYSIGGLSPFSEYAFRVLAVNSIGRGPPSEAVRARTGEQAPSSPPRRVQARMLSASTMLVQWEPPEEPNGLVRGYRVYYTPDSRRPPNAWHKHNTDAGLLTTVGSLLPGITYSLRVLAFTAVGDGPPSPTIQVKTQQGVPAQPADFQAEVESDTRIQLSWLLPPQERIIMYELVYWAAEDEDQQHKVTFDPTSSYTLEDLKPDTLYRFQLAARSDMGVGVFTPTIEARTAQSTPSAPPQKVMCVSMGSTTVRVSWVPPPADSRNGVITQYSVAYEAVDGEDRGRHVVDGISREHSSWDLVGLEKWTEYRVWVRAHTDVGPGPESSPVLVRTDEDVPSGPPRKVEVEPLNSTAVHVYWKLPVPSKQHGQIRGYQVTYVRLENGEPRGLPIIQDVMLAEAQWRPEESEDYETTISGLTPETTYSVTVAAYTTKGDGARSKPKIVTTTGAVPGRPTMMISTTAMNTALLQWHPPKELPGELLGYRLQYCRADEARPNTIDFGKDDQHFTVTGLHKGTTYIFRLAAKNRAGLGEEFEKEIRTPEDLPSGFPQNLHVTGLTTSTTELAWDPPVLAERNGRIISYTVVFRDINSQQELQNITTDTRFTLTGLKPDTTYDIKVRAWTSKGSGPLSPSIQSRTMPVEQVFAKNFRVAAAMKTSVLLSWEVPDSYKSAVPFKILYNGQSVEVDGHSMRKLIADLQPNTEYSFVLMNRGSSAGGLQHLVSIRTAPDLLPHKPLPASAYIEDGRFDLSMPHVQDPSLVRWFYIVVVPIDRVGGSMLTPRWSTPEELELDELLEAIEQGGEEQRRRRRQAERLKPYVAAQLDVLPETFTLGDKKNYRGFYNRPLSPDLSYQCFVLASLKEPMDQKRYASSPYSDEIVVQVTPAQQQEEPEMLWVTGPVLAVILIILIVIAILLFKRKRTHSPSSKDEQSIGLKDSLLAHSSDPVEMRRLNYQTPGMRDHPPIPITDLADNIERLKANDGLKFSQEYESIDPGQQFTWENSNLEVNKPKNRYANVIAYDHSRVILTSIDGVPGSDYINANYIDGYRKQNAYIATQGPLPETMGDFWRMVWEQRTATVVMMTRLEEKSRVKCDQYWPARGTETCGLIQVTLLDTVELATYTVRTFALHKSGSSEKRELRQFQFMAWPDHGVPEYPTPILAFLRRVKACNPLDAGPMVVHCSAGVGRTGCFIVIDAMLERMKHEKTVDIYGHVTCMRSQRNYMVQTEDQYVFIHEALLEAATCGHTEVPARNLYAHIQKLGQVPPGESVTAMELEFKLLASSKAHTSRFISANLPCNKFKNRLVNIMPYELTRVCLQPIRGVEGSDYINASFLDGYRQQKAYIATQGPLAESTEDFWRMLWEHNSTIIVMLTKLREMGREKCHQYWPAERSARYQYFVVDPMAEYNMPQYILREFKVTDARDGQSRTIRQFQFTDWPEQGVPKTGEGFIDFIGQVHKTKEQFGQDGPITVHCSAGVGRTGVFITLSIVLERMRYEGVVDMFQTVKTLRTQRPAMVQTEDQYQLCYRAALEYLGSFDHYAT

SMILES | IC50 [1] [µM] | also measured
COC(=O)C(=O)c1ccc(-n2cc(CO[C@H]3O[C@H](COCc4ccccc4)[C@@H](OCc4ccccc4)[C@H](OCc4ccccc4)[C@H]3OCc3ccccc3)nn2)cc1 [1-(4-(2-Methoxy-2-oxoacetyl)phenyl)-1H-1,2,3-triazol-4-ylmethyl 2,3,4,6-tetra-O-benzyl-a-D-glucopyranoside (17)] | 12.3 | –
O=C(O)C(=O)c1ccc(-n2cc(CO[C@H]3O[C@H](COCc4ccccc4)[C@@H](OCc4ccccc4)[C@H](OCc4ccccc4)[C@H]3OCc3ccccc3)nn2)cc1 [1-(4-(Carboxycarbonyl)phenyl)-1H-1,2,3-triazol-4-ylmethyl 2,3,4,6-tetra-O-benzyl a-D-glucopyranoside (19)] | 5.6 | IC50 [2]: 55.4 µM; IC50 [3]: 6.4 µM; IC50 [4]: > 100 µM; IC50 [5]: > 100 µM
COC(=O)c1ccc(-n2cc(CO[C@H]3O[C@H](COCc4ccccc4)[C@@H](OCc4ccccc4)[C@H](OCc4ccccc4)[C@H]3OCc3ccccc3)nn2)cc1 [1-(4-(Methoxycarbonyl)phenyl)-1H-1,2,3-triazol-4-ylmethyl 2,3,4,6-tetra-O-benzyl a-D-glucopyranoside (16)] | > 100 | –
CC(=O)c1ccc(-n2cc(CO[C@H]3O[C@H](COCc4ccccc4)[C@@H](OCc4ccccc4)[C@H](OCc4ccccc4)[C@H]3OCc3ccccc3)nn2)cc1 [1-(4-Acetylphenyl)-1H-1,2,3-triazol-4-ylmethyl 2,3,4,6-tetra-O-benzyl a-D-glucopyranoside (11)] | > 100 | –
O=C(O)c1ccc(-n2cc(CO[C@H]3O[C@H](COCc4ccccc4)[C@@H](OCc4ccccc4)[C@H](OCc4ccccc4)[C@H]3OCc3ccccc3)nn2)cc1 [1-(4-Carboxyphenyl)-1H-1,2,3-triazol-4-ylmethyl 2,3,4,6-tetra-O-benzyl a-D-glucopyranoside (18)] | 11.1 | –
[N-]=[N+]=Nc1ccc(C(=O)C(=O)O)cc1 [1-[4-(carboxycarbonyl)phenyl]triaz-2-yn-2-ium-1-ide (7)] | 30.2 | –
COC(=O)C(=O)c1ccc(-n2cc(COC[C@H]3O[C@H](OC)[C@H](OCc4ccccc4)[C@@H](OCc4ccccc4)[C@@H]3OCc3ccccc3)nn2)cc1 [Methyl 2,3,4-tri-O-benzyl-6-O-[1-(4-(2-methoxy-2-oxoacetyl)phenyl)-1H-1,2,3-triazol-4-ylmethyl] a-D-glucopyranoside (13)] | 12.7 | –
CO[C@H]1O[C@H](COCc2cn(-c3ccc(C(=O)C(=O)O)cc3)nn2)[C@@H](OCc2ccccc2)[C@H](OCc2ccccc2)[C@H]1OCc1ccccc1 [Methyl 2,3,4-tri-O-benzyl-6-O-[1-(4-(carboxycarbonyl)phenyl)-1H-1,2,3-triazol-4-ylmethyl] a-D-glucopyranoside (15)] | 3.2 | IC50 [2]: > 100 µM; IC50 [3]: 14.5 µM; IC50 [4]: > 100 µM; IC50 [5]: > 100 µM
COC(=O)c1ccc(-n2cc(COC[C@H]3O[C@H](OC)[C@H](OCc4ccccc4)[C@@H](OCc4ccccc4)[C@@H]3OCc3ccccc3)nn2)cc1 [Methyl 2,3,4-tri-O-benzyl-6-O-[1-(4-(methoxycarbonyl)-phenyl)-1H-1,2,3-triazol-4-ylmethyl] a-D-glucopyranoside (12)] | > 100 | –
CO[C@H]1O[C@H](COCc2cn(-c3ccc(C(C)=O)cc3)nn2)[C@@H](OCc2ccccc2)[C@H](OCc2ccccc2)[C@H]1OCc1ccccc1 [Methyl 2,3,4-tri-O-benzyl-6-O-[1-(4-acetylphenyl)-1H-1,2,3-triazol-4-ylmethyl] a-D-glucopyranoside (10)] | > 100 | –
CO[C@H]1O[C@H](COCc2cn(-c3ccc(C(=O)O)cc3)nn2)[C@@H](OCc2ccccc2)[C@H](OCc2ccccc2)[C@H]1OCc1ccccc1 [Methyl 2,3,4-tri-O-benzyl-6-O-[1-(4-carboxyphenyl)-1H-1,2,3-triazol-4-ylmethyl] a-D-glucopyranoside (14)] | > 100 | –
